Experimental data: ChEMBL document CHEMBL1201862, “PubChem BioAssay data set” (2004)
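Exposure lasted 48 hours, with cells grown in 96-well plates and compounds tested at five concentrations. The concentration for 50% growth inhibition is given as GI50.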 Active and inactive are the calls of the source. No stated cut-off is given here; in the data, active = GI50 up to about 1.1 µM and inactive = higher.

Columns and labels:
Assay in all cases: inhibition of tumour cell growth, NCI panel, 48 h
[1] = test system: HCT-15
[2] = test system: XF498
[3] = test system: LOX IMVI
[4] = test system: SW-620
[5] = test system: HOP-92
[6] = test system: SNB-75
[7] = test system: IGROV-1
[8] = test system: DLD-1
[9] = test system: LXFL 529
[10] = test system: A549
[11] = test system: UACC-62
[12] = test system: RPMI-8226
[13] = test system: SN12C
[14] = test system: KM-20L2
[15] = test system: SF-268
[16] = test system: SK-OV-3
[17] = test system: UACC-257
[18] = test system: U-251
[19] = test system: OVCAR-8
[20] = test system: HT-29
[21] = test system: NCI-H460
[22] = test system: HL-60
[23] = test system: NCI-H226
[24] = test system: SK-MEL-28
[25] = test system: SF-295
[26] = test system: UO-31
[27] = test system: K562
[28] = test system: M19-MEL
[29] = test system: CAKI-1
[30] = test system: ACHN
[31] = test system: CCRF-CEM
[32] = test system: OVCAR-3
[33] = test system: SF-539
[34] = test system: KM12
[35] = test system: TK-10
[36] = test system: EKVX
[37] = test system: OVCAR-4
[38] = test system: OVCAR-5
[39] = test system: NCI-H522
[40] = test system: SNB-19
[41] = test system: SK-MEL-5
[42] = test system: SK-MEL-2
[43] = test system: M14
[44] = test system: 786-0
[45] = test system: SR
[46] = test system: MOLT-4
[47] = test system: NCI-H23
[48] = test system: COLO 205
[49] = test system: HCT-116
[50] = test system: HOP-62
[51] = test system: Malme-3M
[52] = test system: SNB-78
[53] = test system: A498
[54] = test system: HCC 2998
[55] = test system: DMS-114
[56] = test system: DMS-273
[57] = test system: HOP-18
[58] = test system: RXF 393

## CCOC(=O)C(C(=O)Cc1ccccc1)c1ccccc1 (centres undefined)
[1]
  GI50: > 100 µM
[2]
  GI50: > 100 µM (inactive)
[3]
  GI50: > 100 µM (inactive)
[4]
  GI50: > 100 µM (inactive)
[5]
  GI50: 57 µM (inactive)
[6]
  GI50: 80 µM (inactive)
[7]
  GI50: > 100 µM (inactive)
[8]
  GI50: > 100 µM (inactive)
[9]
  GI50: > 100 µM (inactive)
[10]
  GI50: > 100 µM (inactive)
[11]
  GI50: > 100 µM (inactive)
[12]
  GI50: > 100 µM (inactive)
[13]
  GI50: > 100 µM (inactive)
[14]
  GI50: > 100 µM (inactive)
[15]
  GI50: > 100 µM (inactive)
[16]
  GI50: > 100 µM (inactive)
[17]
  GI50: > 100 µM (inactive)
[18]
  GI50: > 100 µM (inactive)
[19]
  GI50: > 100 µM (inactive)
[20]
  GI50: > 100 µM (inactive)
[21]
  GI50: > 100 µM (inactive)
[22]
  GI50: > 100 µM (inactive)
[23]
  GI50: > 100 µM (inactive)
[24]
  GI50: > 100 µM (inactive)
[25]
  GI50: > 100 µM (inactive)
[26]
  GI50: > 100 µM (inactive)
[27]
  GI50: > 100 µM (inactive)
[28]
  GI50: > 100 µM (inactive)
[29]
  GI50: > 100 µM (inactive)
[30]
  GI50: > 100 µM (inactive)
[31]
  GI50: > 100 µM (inactive)
[32]
  GI50: > 100 µM (inactive)
[33]
  GI50: > 100 µM (inactive)
[34]
  GI50: > 100 µM (inactive)
[35]
  GI50: > 100 µM (inactive)
[36]
  GI50: > 100 µM (inactive)
[37]
  GI50: > 100 µM (inactive)
[38]
  GI50: > 100 µM (inactive)
[39]
  GI50: > 100 µM (inactive)
[40]
  GI50: > 100 µM (inactive)
[41]
  GI50: > 100 µM (inactive)
[42]
  GI50: > 100 µM (inactive)
[43]
  GI50: > 100 µM (inactive)
[44]
  GI50: > 100 µM (inactive)
[45]
  GI50: > 100 µM (inactive)
[46]
  GI50: 87.9 µM (inactive)
[47]
  GI50: > 100 µM (inactive)
[48]
  GI50: > 100 µM (inactive)
[49]
  GI50: > 100 µM (inactive)
[50]
  GI50: > 100 µM (inactive)
[51]
  GI50: > 100 µM (inactive)
[52]
  GI50: > 100 µM (inactive)

## O=C(Cc1nc2ccccc2s1)C(=O)Nc1ccc(Cl)cc1
[1]
  GI50: > 100 µM
[3]
  GI50: > 100 µM (inactive)
[4]
  GI50: > 100 µM (inactive)
[5]
  GI50: > 100 µM (inactive)
[6]
  GI50: > 100 µM (inactive)
[7]
  GI50: > 100 µM (inactive)
[8]
  GI50: > 100 µM (inactive)
[9]
  GI50: > 100 µM (inactive)
[10]
  GI50: > 100 µM (inactive)
[11]
  GI50: > 100 µM (inactive)
[53]
  GI50: > 100 µM (inactive)
[12]
  GI50: > 100 µM (inactive)
[13]
  GI50: > 100 µM (inactive)
[14]
  GI50: > 100 µM (inactive)
[15]
  GI50: > 100 µM (inactive)
[16]
  GI50: > 100 µM (inactive)
[17]
  GI50: > 100 µM (inactive)
[18]
  GI50: > 100 µM (inactive)
[19]
  GI50: > 100 µM (inactive)
[54]
  GI50: > 100 µM (inactive)
[20]
  GI50: > 100 µM (inactive)
[21]
  GI50: > 100 µM (inactive)
[55]
  GI50: > 100 µM (inactive)
[22]
  GI50: > 100 µM (inactive)
[23]
  GI50: > 100 µM (inactive)
[56]
  GI50: > 100 µM (inactive)
[24]
  GI50: > 100 µM (inactive)
[25]
  GI50: > 100 µM (inactive)
[26]
  GI50: > 100 µM (inactive)
[27]
  GI50: > 100 µM (inactive)
[28]
  GI50: > 100 µM (inactive)
[29]
  GI50: > 100 µM (inactive)
[30]
  GI50: > 100 µM (inactive)
[32]
  GI50: > 100 µM (inactive)
[33]
  GI50: > 100 µM (inactive)
[34]
  GI50: > 100 µM (inactive)
[57]
  GI50: > 100 µM (inactive)
[35]
  GI50: > 100 µM (inactive)
[36]
  GI50: > 100 µM (inactive)
[37]
  GI50: > 100 µM (inactive)
[38]
  GI50: > 100 µM (inactive)
[39]
  GI50: > 100 µM (inactive)
[40]
  GI50: > 100 µM (inactive)
[41]
  GI50: > 100 µM (inactive)
[42]
  GI50: > 100 µM (inactive)
[43]
  GI50: > 100 µM (inactive)
[44]
  GI50: > 100 µM (inactive)
[46]
  GI50: > 100 µM (inactive)
[47]
  GI50: > 100 µM (inactive)
[48]
  GI50: > 100 µM (inactive)
[49]
  GI50: > 100 µM (inactive)
[50]
  GI50: > 100 µM (inactive)
[51]
  GI50: > 100 µM (inactive)
[52]
  GI50: > 100 µM (inactive)

## COc1cc(C(=O)NO)ccc1O
[1]
  GI50: > 100 µM
[58]
  GI50: > 100 µM (inactive)
[3]
  GI50: > 100 µM (inactive)
[4]
  GI50: > 100 µM (inactive)
[5]
  GI50: > 100 µM (inactive)
[6]
  GI50: > 100 µM (inactive)
[7]
  GI50: > 100 µM (inactive)
[8]
  GI50: > 100 µM (inactive)
[9]
  GI50: > 100 µM (inactive)
[10]
  GI50: > 100 µM (inactive)
[11]
  GI50: > 100 µM (inactive)
[53]
  GI50: > 100 µM (inactive)
[12]
  GI50: > 100 µM (inactive)
[13]
  GI50: > 100 µM (inactive)
[14]
  GI50: > 100 µM (inactive)
[15]
  GI50: > 100 µM (inactive)
[16]
  GI50: > 100 µM (inactive)
[17]
  GI50: > 100 µM (inactive)
[18]
  GI50: > 100 µM (inactive)
[19]
  GI50: > 100 µM (inactive)
[54]
  GI50: > 100 µM (inactive)
[20]
  GI50: > 100 µM (inactive)
[21]
  GI50: > 100 µM (inactive)
[55]
  GI50: > 100 µM (inactive)
[22]
  GI50: > 100 µM (inactive)
[56]
  GI50: > 100 µM (inactive)
[24]
  GI50: > 100 µM (inactive)
[25]
  GI50: > 100 µM (inactive)
[26]
  GI50: > 100 µM (inactive)
[27]
  GI50: > 100 µM (inactive)
[28]
  GI50: > 100 µM (inactive)
[30]
  GI50: > 100 µM (inactive)
[31]
  GI50: > 100 µM (inactive)
[32]
  GI50: > 100 µM (inactive)
[33]
  GI50: 87.7 µM (inactive)
[34]
  GI50: > 100 µM (inactive)
[57]
  GI50: > 100 µM (inactive)
[35]
  GI50: > 100 µM (inactive)
[36]
  GI50: > 100 µM (inactive)
[37]
  GI50: > 100 µM (inactive)
[38]
  GI50: > 100 µM (inactive)
[39]
  GI50: > 100 µM (inactive)
[40]
  GI50: > 100 µM (inactive)
[42]
  GI50: > 100 µM (inactive)
[43]
  GI50: > 100 µM (inactive)
[44]
  GI50: > 100 µM (inactive)
[46]
  GI50: > 100 µM (inactive)
[47]
  GI50: > 100 µM (inactive)
[48]
  GI50: > 100 µM (inactive)
[49]
  GI50: > 100 µM (inactive)
[50]
  GI50: > 100 µM (inactive)
[51]
  GI50: > 100 µM (inactive)
[52]
  GI50: > 100 µM (inactive)
